# Structures can show the parent of a compound that is named as a salt.
# Target: T1, VhAasS (Vibrio harveyi, UniProt Q00IB3)
# T1 construct: gene aasS; His6-tagged, expressed in E. coli BL21[DE3], Ni-NTA purified; tag removal not mentioned
# T1 sequence (Q00IB3 1-533): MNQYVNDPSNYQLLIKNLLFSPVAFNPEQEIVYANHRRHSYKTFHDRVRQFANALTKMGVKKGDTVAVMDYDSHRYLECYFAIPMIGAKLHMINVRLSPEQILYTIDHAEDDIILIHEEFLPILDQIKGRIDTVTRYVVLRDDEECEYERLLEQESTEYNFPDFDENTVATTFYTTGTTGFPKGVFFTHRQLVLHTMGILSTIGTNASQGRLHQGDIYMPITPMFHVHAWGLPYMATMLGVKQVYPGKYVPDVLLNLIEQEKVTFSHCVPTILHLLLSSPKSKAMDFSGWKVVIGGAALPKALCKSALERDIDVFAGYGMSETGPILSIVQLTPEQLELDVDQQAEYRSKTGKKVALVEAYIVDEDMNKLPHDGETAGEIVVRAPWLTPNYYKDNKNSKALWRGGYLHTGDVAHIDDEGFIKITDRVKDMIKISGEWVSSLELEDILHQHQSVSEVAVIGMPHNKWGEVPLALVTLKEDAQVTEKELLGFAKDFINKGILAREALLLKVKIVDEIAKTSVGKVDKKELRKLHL
# Test: urea-PAGE of acyl-ACP loading, ImageJ densitometry
# Format: biochemical
# Conditions: decanoic acid 1 mM, ATP 10 mM, MgCl2 12.5 mM, TCEP 2.5 mM; holo-EcACP or holo-VcACP 30 µM; enzyme 0.5 µM; pH 7.5, 37 °C, 24 h
compound,measurement,value
"CCCCCCCCCC(=O)NS(=O)(=O)OC[C@H]1O[C@@H](n2cnc3c(N)ncnc32)[C@H](O)[C@@H]1O [compound 7, 5′-O-(N-decanylsulfamoyl)adenosine mono sodium salt]",% inhibition at 1 mM,"In the presence of C10-AMS, VhAasS is completely inhibited from loading decanoic acid"

# — publication PMC7575536, “Synthesis of an acyl-acyl carrier protein synthetase inhibitor to study fatty acid recycling” (Scientific Reports, 2020)
